Assay [1] concerns the target T1, human muscarinic M2 receptor (Homo sapiens, UniProt P08172).
T1 sequence (P08172 1-466): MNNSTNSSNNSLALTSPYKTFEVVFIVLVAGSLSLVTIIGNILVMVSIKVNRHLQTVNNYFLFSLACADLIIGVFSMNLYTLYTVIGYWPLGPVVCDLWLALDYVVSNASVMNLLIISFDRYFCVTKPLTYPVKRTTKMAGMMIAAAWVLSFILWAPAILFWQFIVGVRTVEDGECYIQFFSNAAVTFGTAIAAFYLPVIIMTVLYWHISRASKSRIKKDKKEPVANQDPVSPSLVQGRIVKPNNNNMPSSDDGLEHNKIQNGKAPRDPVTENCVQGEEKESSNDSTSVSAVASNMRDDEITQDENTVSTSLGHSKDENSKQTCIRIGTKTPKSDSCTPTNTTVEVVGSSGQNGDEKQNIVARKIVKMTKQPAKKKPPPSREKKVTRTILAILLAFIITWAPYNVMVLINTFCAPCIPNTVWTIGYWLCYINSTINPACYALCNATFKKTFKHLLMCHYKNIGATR
The assay is described as follows: Phospho-ERK1/2 assay, muscarinic M2. Format: cell-based. Particulars: for EC50: CHO cells expressing human M2, phospho-ERK1/2 Alphascreen, read-out: pEC50 M2 (converted); for Emax: CHO, read-out: % Emax cf. ACh (M2). Summed up:
(§1)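 Agonist-induced phospho-ERK1/2 is measured in serum-starved CHO cells carrying the human receptor, with a 5 min stimulation at 37 °C. AlphaScreen SureFire quantifies the signal, from which pEC50 and Emax are obtained.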

The target in assay [2] is T2, human muscarinic M1 receptor (Homo sapiens, UniProt P11229).
T2 sequence (P11229 1-460): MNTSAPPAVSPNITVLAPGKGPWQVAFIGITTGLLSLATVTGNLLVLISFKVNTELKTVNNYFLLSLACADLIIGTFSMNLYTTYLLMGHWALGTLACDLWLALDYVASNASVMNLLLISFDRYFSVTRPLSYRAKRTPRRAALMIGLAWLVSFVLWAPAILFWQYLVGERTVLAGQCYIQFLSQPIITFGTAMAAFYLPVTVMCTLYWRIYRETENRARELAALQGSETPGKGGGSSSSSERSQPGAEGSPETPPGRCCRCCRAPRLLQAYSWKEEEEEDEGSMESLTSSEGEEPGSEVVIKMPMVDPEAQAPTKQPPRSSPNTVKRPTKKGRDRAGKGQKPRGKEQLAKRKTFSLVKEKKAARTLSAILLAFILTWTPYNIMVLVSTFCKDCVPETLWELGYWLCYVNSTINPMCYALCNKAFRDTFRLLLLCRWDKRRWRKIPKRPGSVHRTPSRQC
Put plainly: Phospho-ERK1/2 assay, muscarinic M1. Type of assay: cell-based. The following applies: for EC50: CHO cells expressing human M1, phospho-ERK1/2 Alphascreen, read-out: pEC50 M1 (converted); for Emax: CHO, read-out: % Emax cf. ACh (M1). Summed up:
as §1
For orientation: In Alpha technology, singlet oxygen from a donor bead excites a nearby acceptor bead.

The target in assay [3] is T3, human muscarinic M3 receptor (Homo sapiens, UniProt P20309).
T3 construct: expressed in transfected cells
Put plainly: Phospho-ERK1/2 assay, muscarinic M3. Particulars: for EC50: CHO cells expressing human M3, phospho-ERK1/2 Alphascreen, read-out: pEC50 M3 (converted); for Emax: CHO, read-out: % Emax cf. ACh (M3). Format: cell-based. The procedure, abridged:
as §1

Assay [4] deals with T4, human muscarinic M4 receptor (Homo sapiens, UniProt P08173).
T4 construct: expressed in transfected cells
T4 sequence (P08173 1-479): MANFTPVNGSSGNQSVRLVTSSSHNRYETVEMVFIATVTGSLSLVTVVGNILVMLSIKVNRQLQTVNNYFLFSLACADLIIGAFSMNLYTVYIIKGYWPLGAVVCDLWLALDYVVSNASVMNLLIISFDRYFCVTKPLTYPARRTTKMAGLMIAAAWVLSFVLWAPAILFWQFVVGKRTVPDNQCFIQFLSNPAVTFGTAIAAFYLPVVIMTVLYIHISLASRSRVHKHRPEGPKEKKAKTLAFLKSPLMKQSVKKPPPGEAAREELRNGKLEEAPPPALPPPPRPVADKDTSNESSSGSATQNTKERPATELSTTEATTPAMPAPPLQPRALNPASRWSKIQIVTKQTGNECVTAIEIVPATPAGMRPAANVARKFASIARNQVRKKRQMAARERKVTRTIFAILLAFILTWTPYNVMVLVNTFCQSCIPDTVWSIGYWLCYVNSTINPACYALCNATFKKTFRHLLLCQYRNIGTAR
The assay is described as follows: Phospho-ERK1/2 assay, muscarinic M4. Type of assay: cell-based. Particulars: for EC50: CHO cells expressing human M4, phospho-ERK1/2 Alphascreen, read-out: pEC50 M4 (converted); for Emax: CHO, read-out: % Emax cf. ACh (M4). The procedure, abridged:
as §1

Assay [5] concerns CA1 region of rat hippocampal slices. The assay is described as follows: CA1 cell firing (fEPSP amplitude). Format: cell-based. Particulars: five point cumulative concentration-response, 6 slices averaged. How it is done:
Rat hippocampal slices of […] thickness were cut in chilled (<4° C.) artificial cerebrospinal fluid (aCSF, composition in mM: NaCl 127, KCl 1.6, KH2PO4 1.24, MgSO4 1.3, CaCl2 2.4, NaHCO3 26 and D-glucose 10) using vibratome. Slices were maintained in oxygenated (95% O2/5% CO2) aCSF at room temperature for at least 1 hr prior to electrophysiological recording, after which they were transferred to an interface chamber and constantly perfused with warmed (30° C.) oxygenated aCSF at a flow rate of 1.5-3 ml·min−1. Schaffer collaterals were then stimulated (1-20 V, 0.1 ms pulse width, 0.033 Hz) with a concentric bipolar electrode to evoke field excitatory post synaptic potentials (fEPSPs) recorded from the stratum radiatum of the CA1 region.
Experiments were performed to examine the effect of compound compared to […] carbachol (CCh), on the amplitude of fEPSPs in the CA1 region of rat hippocampal slices. 1 μM CCh was initially applied until steady-state, followed by wash, before performing a five point cumulative concentration-response to compound. Each compound was tested on 6 slices and results averaged. Drug preparation; compound was dissolved in 100% DMSO at a stock concentration of 30 mM, and diluted according to requirements, carbamoylcholine chloride (CCh) was purchased from Sigma (Cat #C4382) and dissolved at a stock concentration of 1 mM in ddH2O.

Another assay deals with Male Wistar rats. The assay is described as follows: Novel object recognition. Type of assay: in vivo. The method, then:
The novel object recognition paradigm is based on the greater spontaneous exploration of a novel object, compared with a familiar object, shown by rodents (Ennaceur and Delacour, 1988). […] Male Wistar rats were assessed for cognitive ability in a test apparatus comprising an open-field arena placed in a sound-attenuated room under dimmed lighting. Images of the open-field were captured by digital camera, and viewed on a monitor in an adjoining room. Each rat was subjected to the procedure separately and care taken to remove any olfactory/taste cues by cleaning the arena and test objects with alcohol between trials and rats. All tests are video scored blind to treatment. Following a 10-minute habituation period, each rat was placed into the test arena in the presence of two identical objects (plastic shapes). Each rat was placed facing the same direction at the same position in the arena, and the time spent actively exploring the objects during a 5-minute training period (T1) was recorded. The rat is returned to its home cage between tests. After 24 hours, each rat was again placed in the test arena for 5 minutes (T2) in the presence of one of the familiar objects and a novel object, and the time spent exploring both objects again recorded. The presentation order and position of the objects (left/right) was randomized between rats to prevent bias from order or place preference. Doses of 3, 10 or 30 mg/kg of test compound were administered by oral gavage 90 minutes prior to training (n=8). Donepezil (0.1 mg/kg) and galanthamine (3 mg/kg) were administered via intraperitoneal injection 60 minutes prior to training. Vehicle-treated controls were employed for comparison.

The values that follow come from patent US10973832B2, “Muscarinic M1 receptor agonists” (Heptares Therapeutics Limited, priority 2011, dated 2021).

One may read the Emax as the greatest response seen or fitted, relative to the assay's reference.

The structures appear in SMILES notation.

T3 sequence (P20309 whole entry): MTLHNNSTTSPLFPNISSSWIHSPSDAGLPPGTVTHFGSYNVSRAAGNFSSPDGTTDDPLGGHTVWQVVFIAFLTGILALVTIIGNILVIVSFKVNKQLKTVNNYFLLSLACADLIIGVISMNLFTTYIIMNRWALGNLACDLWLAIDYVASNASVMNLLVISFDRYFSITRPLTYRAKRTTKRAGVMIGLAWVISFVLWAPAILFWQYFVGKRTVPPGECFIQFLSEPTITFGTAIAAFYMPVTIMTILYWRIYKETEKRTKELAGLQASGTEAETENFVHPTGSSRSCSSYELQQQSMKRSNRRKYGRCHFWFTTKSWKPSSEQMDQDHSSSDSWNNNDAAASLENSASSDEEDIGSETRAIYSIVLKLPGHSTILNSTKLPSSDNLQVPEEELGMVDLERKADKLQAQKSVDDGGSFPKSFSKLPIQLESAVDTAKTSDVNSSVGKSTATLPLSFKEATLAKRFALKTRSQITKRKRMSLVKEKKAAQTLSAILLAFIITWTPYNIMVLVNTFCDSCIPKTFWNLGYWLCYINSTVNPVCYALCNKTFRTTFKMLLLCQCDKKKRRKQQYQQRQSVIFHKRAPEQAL

As to `CCOC(=O)N1CCCC(N2CCC(C(=O)NCC(C)C)CC2)CC1` (centres unmarked) [Example 6, ethyl 4-(4-((2-methylpropyl)carbamoyl)piperidin-1-yl)azepane-1-carboxylate], the EC50 in assay [1] was > 20 µM; in assay [2], 0.0851 µM; in assay [3], > 20 µM; in assay [4] it was 1.05 µM; in assay [5], 4.1 µM. Also, the Emax was 10% in assay [1], 113% in assay [2], 33% in assay [3] and 76% in assay [4].
Turning to `COc1ccc2c3c1O[C@H]1C[C@@H](O)C=C[C@@]31CCN(C)C2` [galanthamine], the “novel object recognition memory vs vehicle-treated controls” value with Male Wistar rats (3 mg/kg intraperitoneal 60 minutes prior to training, p<0.05) was “significantly improved novel object recognition memory”.
As for `COc1cc2c(cc1OC)C(=O)C(CC1CCN(Cc3ccccc3)CC1)C2` (centres unmarked) [Donepezil, donepezil], the “novel object recognition memory vs vehicle-treated controls” value in the assay on Male Wistar rats (0.1 mg/kg intraperitoneal 60 minutes prior to training) is “without effect on novel object recognition”.
With `CCOC(=O)N1CCCC(N2CCC(F)(C(=O)NCC(C)C)CC2)CC1` (centres unmarked) [Example 40, ethyl 4-(4-fluoro-4-((2-methylpropyl)carbamoyl)piperidin-1-yl)azepane-1-carboxylate], the EC50 in assay [1] is > 20 µM; in assay [2], 0.0457 µM; in assay [3], > 20 µM; in assay [4] it was 0.851 µM; in assay [5], 9.4 µM. Besides, the Emax in assay [1] was found to be 13%; in assay [2] it was 106%; in assay [3], 9%; in assay [4] it was 89%.
